{"source": "paper PMC5441580", "about": "“GPR40 partial agonist MK-2305 lower fasting glucose in the Goto Kakizaki rat via suppression of endogenous glucose production” (PLoS ONE, 2017)", "key": {"Rat PPARγ": {"biological_target": "T1, Rat PPARγ (Rattus norvegicus, UniProt O88275)", "T1 sequence (O88275 238-505 limits assumed)": "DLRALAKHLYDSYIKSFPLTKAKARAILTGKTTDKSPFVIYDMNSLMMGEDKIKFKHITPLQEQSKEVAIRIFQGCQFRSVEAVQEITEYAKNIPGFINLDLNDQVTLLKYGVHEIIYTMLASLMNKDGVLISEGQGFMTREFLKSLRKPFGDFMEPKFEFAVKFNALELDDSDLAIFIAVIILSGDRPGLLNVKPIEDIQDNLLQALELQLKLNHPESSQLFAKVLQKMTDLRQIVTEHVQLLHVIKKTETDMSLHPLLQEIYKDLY", "test": "cell-based nuclear receptor profiling (Indigo Biosciences), PPARγ", "protocol": "(§1) Rat PPARα, PPARδ, and PPARγ activities were determined by Indigo Biosciences (State College, PA) cell-based nuclear receptor profiling service."}, "Rat PPARα": {"biological_target": "T2, Rat PPARα (Rattus norvegicus, UniProt P37230)", "T2 sequence (P37230 1-468)": "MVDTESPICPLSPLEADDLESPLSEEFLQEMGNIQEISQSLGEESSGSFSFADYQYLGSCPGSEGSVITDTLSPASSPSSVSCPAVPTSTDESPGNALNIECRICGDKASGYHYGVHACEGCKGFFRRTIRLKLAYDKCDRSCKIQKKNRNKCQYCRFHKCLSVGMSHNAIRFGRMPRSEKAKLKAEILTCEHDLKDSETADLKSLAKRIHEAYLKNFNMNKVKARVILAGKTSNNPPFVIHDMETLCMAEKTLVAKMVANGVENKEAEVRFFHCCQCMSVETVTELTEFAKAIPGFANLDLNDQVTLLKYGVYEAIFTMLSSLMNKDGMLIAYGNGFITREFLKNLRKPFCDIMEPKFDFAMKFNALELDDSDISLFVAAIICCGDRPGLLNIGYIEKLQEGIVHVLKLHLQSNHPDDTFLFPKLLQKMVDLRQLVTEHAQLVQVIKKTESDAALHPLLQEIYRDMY", "test": "cell-based nuclear receptor profiling (Indigo Biosciences), PPARα", "protocol": "as §1"}, "[1]": {"test": "protein binding assay in mouse plasma", "format": "in vitro ADME", "conditions": "read-out: free fraction"}, "GK rats": {"test_system": "GK rats", "test": "endogenous glucose production in vivo, 2H/13C dual tracer, chronic treatment, GK rats", "design": "species or system rat", "conditions": "10 mg/kg, individual animals", "protocol": "To evaluate whether MK-2305 treatment produced an effect on EGP in vivo, a ^2H/^13C dual tracer approach was used to calculate EGP and its contributing sources. On the day of the study, GK rats were bled via tail snip, and blood glucose was measured via glucometer. Ambient glucose was measured at 8 A.M. and used to sort animals into treatment groups (n = 8 per group). 0.9% NaCl salinated D2O (Sigma-Aldrich, St. Louis, MO) was administered to all animals via IP injection at dose volume of 20 ml/kg. Animals were then placed in clean cages and food was removed. After a 5 hour fast, blood glucose was measured and animals were dosed PO with MK-2305 at 10 mg/kg (5 ml/kg) or vehicle (0.5% methylcellulose) immediately followed by 50 mg/kg [U-^13C] glucose (Sigma-Aldrich) IP at 5 ml/kg. Blood was collected via tail snip at time points from 60–150 min post treatment to measure blood glucose as well as endogenous (^12C-glucose) and exogenous (^13C-glucose) via GCMS. Following the last tail blood collection, rats were anesthetized with isoflurane and cardiac blood was collected into K2EDTA tubes (Becton, Dickinson and Co., Franklin Lakes, NJ).\nThe serially collected blood samples were analyzed for ^13C-glucose enrichment using GC-MS analysis. The % ^13C glucose enrichments were then combined with the total glucose readings to calculate the concentration of ^13C-glucose, and these values were modeled with a two-compartment model of whole body glucose metabolism to calculate the average EGP for the period from 0–150 minutes.\nTerminal blood samples were analyzed for relative ^2H enrichment in plasma glucose using the monoacetone glucose method. Briefly, samples were extracted with 70% perchloric acid and centrifuged at 25,000 rcf for 10 min at 4°C. The supernatant was collected and the pH was adjusted to 6–8 using KOH. The samples were then lyophilized overnight. To convert plasma glucose to monoacetone glucose (MAG), acetone and concentrated sulfuric acid were added to the lyophilized samples and stirred for 4 hours at room temperature. Water was then added and the pH adjusted to 2.0 with 3M Na2CO3. Samples were stirred moderately for 18 hours at room temperature, the pH was adjusted to 7 with 3M Na2CO3, and the samples were completely dried by speed vacuum concentration. The resulting MAG samples were then extracted in hot ethyl acetate, dried overnight under a stream of N2 gas, purified using Discovery DSC-18 SPE columns (6 ml, 1 g bed weight), and freeze dried. […] The ^2H NMR spectra of the MAG samples were then analyzed using in–house developed Matlab (The Mathworks Inc, Natick, MA) to model the NMR peaks with a Lorentzian line shape, and the results were used to calculate integrals for each of the seven NMR resonances in the MAG spectrum. […]"}}, "note": "pEC50: −log10 of the molar value. “And” between values parts separate entries of the source, which are not always exact repeats. Identical values can stand only once."}
{"smiles": "O=C1NC(=O)C(C2CCOc3cc(Oc4ccc(C(F)(F)F)cc4Cl)ccc32)S1", "note": "(centres unmarked) [MK-2305]", "values": [{"measurement": "pEC50", "setting": "Rat PPARγ", "value": "< 5.00"}, {"measurement": "% Activation", "setting": "Rat PPARγ; @ 10 μM", "value": "3.1 @ 10 μM % and 3.1%"}, {"measurement": "% Effect", "setting": "Rat PPARγ; Dose 0.309 nM", "value": -0.11, "unit": "%"}, {"measurement": "% Effect", "setting": "Rat PPARγ; Dose 0.981 nM", "value": -0.11, "unit": "%"}, {"measurement": "% Effect", "setting": "Rat PPARγ; Dose 3.11 nM", "value": -0.19, "unit": "%"}, {"measurement": "% Effect", "setting": "Rat PPARγ; Dose 9.85 nM", "value": -0.3, "unit": "%"}, {"measurement": "% Effect", "setting": "Rat PPARγ; Dose 31.2 nM", "value": -0.25, "unit": "%"}, {"measurement": "% Effect", "setting": "Rat PPARγ; Dose 99 nM", "value": -0.14, "unit": "%"}, {"measurement": "% Effect", "setting": "Rat PPARγ; Dose 314 nM", "value": -0.37, "unit": "%"}, {"measurement": "% Effect", "setting": "Rat PPARγ; Dose 995 nM", "value": -0.13, "unit": "%"}, {"measurement": "% Effect", "setting": "Rat PPARγ; Dose 3155 nM", "value": 0.6, "unit": "%"}, {"measurement": "% Effect", "setting": "Rat PPARγ; Dose 10000 nM", "value": 3.1, "unit": "%"}, {"measurement": "pEC50", "setting": "Rat PPARα", "value": "< 5.00"}, {"measurement": "% Activation", "setting": "Rat PPARα; @ 10 μM", "value": "-0.2 @ 10 μM % and -0.24%"}, {"measurement": "% Effect", "setting": "Rat PPARα; Dose 0.309 nM", "value": -0.03, "unit": "%"}, {"measurement": "% Effect", "setting": "Rat PPARα; Dose 0.981 nM", "value": -0.05, "unit": "%"}, {"measurement": "% Effect", "setting": "Rat PPARα; Dose 3.11 nM", "value": -0.11, "unit": "%"}, {"measurement": "% Effect", "setting": "Rat PPARα; Dose 9.85 nM", "value": -0.1, "unit": "%"}, {"measurement": "% Effect", "setting": "Rat PPARα; Dose 31.2 nM", "value": -0.09, "unit": "%"}, {"measurement": "% Effect", "setting": "Rat PPARα; Dose 99 nM", "value": -0.06, "unit": "%"}, {"measurement": "% Effect", "setting": "Rat PPARα; Dose 314 nM", "value": -0.09, "unit": "%"}, {"measurement": "% Effect", "setting": "Rat PPARα; Dose 995 nM", "value": -0.13, "unit": "%"}, {"measurement": "% Effect", "setting": "Rat PPARα; Dose 3155 nM", "value": -0.18, "unit": "%"}, {"measurement": "% Effect", "setting": "Rat PPARα; Dose 10000 nM", "value": -0.24, "unit": "%"}, {"measurement": "fraction unbound", "setting": "[1]", "value": 0.026}, {"measurement": "Glucose Production, GNG Glycerol", "setting": "GK rats", "value": "9.192 µmol/kg/min and 6.083 µmol/kg/min and 7.998 µmol/kg/min and 7.217 µmol/kg/min and 7.842 µmol/kg/min and 8.659 µmol/kg/min and 3.467 µmol/kg/min and 8.678 µmol/kg/min"}, {"measurement": "Glucose Production, GNG TCA", "setting": "GK rats", "value": "36.7882 µmol/kg/min and 38.5819 µmol/kg/min and 33.1225 µmol/kg/min and 31.7162 µmol/kg/min and 37.3311 µmol/kg/min and 31.203 µmol/kg/min and 37.9138 µmol/kg/min and 30.2175 µmol/kg/min"}, {"measurement": "Glucose Production, GNG Total", "setting": "GK rats", "value": "45.9798 µmol/kg/min and 44.6651 µmol/kg/min and 41.1202 µmol/kg/min and 38.9333 µmol/kg/min and 45.1729 µmol/kg/min and 39.8625 µmol/kg/min and 41.3808 µmol/kg/min and 38.8959 µmol/kg/min"}, {"measurement": "Glucose Production, Glycogenolysis", "setting": "GK rats", "value": "21.2266 µmol/kg/min and 17.3215 µmol/kg/min and 19.9927 µmol/kg/min and 20.4645 µmol/kg/min and 22.2628 µmol/kg/min and 19.9186 µmol/kg/min and 23.4568 µmol/kg/min and 19.0453 µmol/kg/min"}]}
